Calls of active or inactive are those of the source. The rule behind the calls is not given here.

The test system of one series is WEHI. Put plainly: Antiproliferative activity against mouse WEHI 164 cells after 96 hrs by MTT assay. In kind it is functional, cell-based.
In another series the test system is J774. Put plainly: Antiproliferative activity against mouse J774 cells after 96 hrs by MTT assay. In kind it is cell-based. To be noted: j774, 96 h.

As for `Cc1cc[n+](C)cc1CCC(=O)[O-]` [SULCATIN], the outcome with WEHI was Active. For the same compound, in the series with J774, the result was Active.

These data come from ChEMBL document CHEMBL1154568, “Sulcatin, a novel antiproliferative N-methylpyridinium alkaloid from the ascidian Microcosmus vulgaris” (J Nat Prod, 2000).
